Laboratory results from patent US20130296224A1, “METHOD FOR TREATMENT OF INFLAMMATORY DISEASE AND DISORDER” (HealOr Ltd., priority 2011, published 2013).
The star is where a group is joined. Palmitoyl = CCCCCCCCCCCCCCCC(=O)*; Myristoyl = CCCCCCCCCCCCCC(=O)*

What was measured:
[1] = tested on: EAE mice; test: Experimental allergic encephalomyelitis (EAE), MOG35-55/CFA immunized mice; format: in vivo, C57BL/6J mice; design: EAE severity / average group score at the end of the experiment (day 42): dose or concentration left out as unconfirmed; conditions: for Score on day 18 / Score on day 29 / Score on day 37: EAE scale 0-6; for Number of dead mice during 49 days: n=7 per group; for EAE score on the initial day (in brackets): scale 0-6
[2] = tested on: keratinocytes stimulated by TNFα; test: Cytokine secretion in stimulated keratinocytes treated with PKCδ activator (ELISA); format: cell-based, BALB/C mice; conditions: medium collected after 48 hr
Description: (§1) PKCδ activators were also shown to have an anti-inflammatory effect on keratinocytes and splenocytes. Keratinocytes were derived from newborn BALB/C mice skin. The cells were incubated for 5 days in 24 wells plate. Cells were then incubated with PBS−/− as control or stimulated by LPS or TNFα. The PKCδ inhibitor DAP-1 (SEQ ID NO: 34) was added. Medium containing secreted cytokines was collected after 48 hr and analyzed using ELISA. FIG. 43 is a tabular summary showing cytokine secretion in splenocytes stimulated with LPS. FIG. 44 is a tabular summary of cytokine secretion in keratinocytes stimulated by TNFα.

[3] = tested on: splenocytes stimulated with LPS; test: Cytokine secretion in splenocytes stimulated with LPS, treated with PKCδ activator; format: cell-based
Description: as §1

[4] = tested on: activated keratinocytes; test: Cytokine secretion in LPS, TNFα or IL-17 activated keratinocytes treated with peptide PKCα inhibitors (ELISA); format: cell-based, BALB/C mice; conditions: for cytokine secretion in keratinocytes stimulated by LPS, TNFα, or IL-17: medium collected after 48 hr, ELISA; for cytokine secretion from LPS and TNFα activated keratinocytes: FIGS. 19 to 23; for cytokine secretion from IL-17A activated keratinocytes: FIGS. 24 to 27
Description: To determine their effects, keratinocytes were derived from newborn BALB/C mice skin. The cells were incubated for 5 days in 24 wells plate. Cells were then incubated with PBS −/− as control or stimulated by LPS, TNFα, or IL-17. PKCα inhibitors were added as indicated. Medium containing secreted cytokines was collected after 48 hr and analyzed using ELISA. FIG. 50 is a tabular summary of cytokine secretion.

[5] = tested on: macrophages (Iba-1); test: Macrophage infiltration in skin wound (Iba-1 staining); format: in vivo, C57BL/6J mouse; conditions: daily treatment, five days post-wounding
Description: The effect of MPDY-1 on macrophage infiltration was also shown by Iba-1 staining. Iba-1 is a general marker for macrophages. […] As above, a two-cm longitudinal incision was done on the upper back of a C57BL/6J mouse. Following wounding, a sterile pad was sutured to the mouse's skin. Animals were treated daily with MPDY-1 (n=6). Five days post-wounding, when inflammatory phase reaches its peak, the mice were sacrificed, skin tissues were embedded in paraffin and immunohistochemical staining was performed utilizing anti-Iba-1 antibodies.

[6] = tested on: activated macrophages (MAC-2); test: Macrophage activation in skin wound (MAC-2 staining); format: in vivo, C57BL/6J mouse; conditions: daily treatment, 5 days; control vs 10 μg p=0.0028
Description: The effect of MPDY-1 on macrophage activation was also shown by MAC-2 staining. MAC-2 is a specific marker for activated macrophages. […] A two-cm longitudinal incision was done as described above. Animals were treated daily with DPBS^−/− (Control) or MPDY-1 in the specified concentrations (n=6). After 5 days immunohistochemical staining was performed utilizing anti-MAC-2 antibodies. Bar […]. (*p(control Vs. MPDY-1 10 μg)=0.0028).

[7] = tested on: IKK; test: TNFα induced IKK activation in keratinocytes (Western blot phospho-IKKa/b Ser176/180); format: cell-based, Murine; conditions: 1 hour pretreatment, TNFα 35 ng/ml 15 minutes
Description: Murine primary keratinocytes were grown for 4 days to full confluence in Low Ca^+2 MEM. Cells were pretreated with designated concentration of MPDY-1 as described in the figure for 1 hour, prior to TNFα induction. Following MPDY-1 pretreatment, cells were incubated with TNFα 35 ng/ml for 15 minutes. Reaction was stopped by adding ice-cold dPBS−/− and keratinocytes were homogenized in RIPA buffer. Samples were subjected to SDS PAGE Western Blot analysis, utilizing phospho-IKKa/b (Ser176/180 antibody).

[8] = tested on: histamine induced pruritus; test: Histamine prick test model of pruritus; format: in vivo, healthy volunteers; conditions: topical application on forearm, photographs at 0, 10, 20, 30 minutes
Description: Forearms of individual subjects were injected with histamine solution and placebo. The formulation of Example 4 was topically applied with MPDY-1 at various concentrations and pruritus was assessed over a time course as shown in FIGS. 39-42.
This test was performed by placing a drop of a solution containing a possible allergen on the skin, and a series of scratches or needle pricks allow the solution to enter the skin. The extract enters into the outer layer of the skin (epidermis) using a fine needle (such as a. 26G disposable needle). This testing is not painful, and generally there is no bleeding involved since the needle only scratches the surface of the skin. If the skin develops a red, raised itchy area (called a wheal), it is as a result of allergic reaction to that allergen. This is called a positive reaction. A drop of extract is introduced through a fine needle (such as a No. 26 disposable needle). The test causes no discomfort and minimal trauma so that controls and negative test show only the site of the prick; if anything.
26G needles were utilized to introduce histamine stock (Histatrol Positive Control Histamine, 1 mg/ml, code #HIST14999V, Trupharm). The test was conducted on healthy volunteers in a double-blind, randomized test. The formulations were applied on the forearms. […]

[9] = 0.1 mg/kg i.p. three times a week
[10] = 1 mg/kg i.p. three times a week

## CRAMP: comparison treatment in the EAE study (0.2 and 2 mg/kg); not further described (ISRLAGLLRKGGEKIGEKLKKIGQKIKNFFQKLVPQPE; Cathelin-related antimicrobial peptide; UniProt P51437 135-172, looked up) [reference compound]
[1]; 0.2 mg/kg i.p. three times a week
  The initial day (first illness signs): 10 days
[1]; 0.2 mg/kg i.p.
  Score on day 18: 3.214
  Score on day 29: 2.000
  Score on day 37: 2.571
  Number of dead mice during 49 days: 2
  EAE score on the initial day (in brackets): 0.571
[1]; 2 mg/kg i.p. three times a week
  The initial day (first illness signs): 11 days
[1]; 2 mg/kg i.p.
  Score on day 18: 2.643
  Score on day 29: 2.643
  Score on day 37: 2.143
  Number of dead mice during 49 days: 2
  EAE score on the initial day (in brackets): 0.143

## H-His-Phe-Glu-Asp-Trp-Ile-Asp-His-Phe-Glu-Asp-Trp-Ile-Asp-OH (H-HFEDWIDHFEDWID-OH) [DAP-1]
[2]
  inflammatory cytokine secretion in keratinocytes: significantly decease inflammatory cytokine secretion
[3]
  inflammatory cytokine secretion in splenocytes: significantly decease inflammatory cytokine secretion

## H-Phe-Ala-Arg-Lys-Gly-Ala-Leu-Arg-Gln-OH (H-FARKGALRQ-OH) [AWOT-1]
[4]
  cytokine secretion in keratinocytes stimulated by LPS, TNFα, or IL-17: effective in decreasing cytokine secretion

## H-Phe-Ala-Arg-Lys-Gly-Ala-Leu-Arg-Gln-OH-acetate salt (H-FARKGALRQ-OH; also: acetate salt) [PDY-1]
[4]
  cytokine secretion from LPS and TNFα activated keratinocytes: decrease cytokine secretion
  cytokine secretion from IL-17A activated keratinocytes: decrease cytokine secretion

## H-Thr-Leu-Asn-Pro-Gln-Trp-Glu-Ser-OH (H-TLNPQWES-OH) [AIP-1]
[4]
  cytokine secretion in keratinocytes stimulated by LPS, TNFα, or IL-17: effective in decreasing cytokine secretion

## Myristoyl-Phe-Ala-Arg-Lys-Gly-Ala-Leu-Arg-Gln-OH (Myristoyl-FARKGALRQ-OH; SMILES CCCCCCCCCCCCCC(=O)N[C@@H](Cc1ccccc1)C(=O)N[C@@H](C)C(=O)N[C@@H](CCCNC(=N)N)C(=O)N[C@@H](CCCCN)C(=O)NCC(=O)N[C@@H](C)C(=O)N[C@@H](CC(C)C)C(=O)N[C@@H](CCCNC(=N)N)C(=O)N[C@@H](CCC(N)=O)C(=O)O) [MPDY-1]
[5]
  macrophage infiltration (Iba-1 positive cells per field): dose dependent effect
[6]
  activation of macrophages (MAC-2 positive cells per field): significantly inhibited
[7]
  TNFα induced IKK activation in keratinocytes: significantly reduced
  concentration exhibiting the strongest inhibition of IKK activation (lowest tested): 0.1 mg/mL
[4]
  cytokine secretion from LPS and TNFα activated keratinocytes: decrease cytokine secretion
  cytokine secretion from IL-17A activated keratinocytes: decrease cytokine secretion
  cytokine secretion in keratinocytes stimulated by LPS, TNFα, or IL-17: effective in decreasing cytokine secretion
[1]
  EAE severity: reduced EAE severity
[1]; 0.1 mg/kg
  EAE score / clinical symptoms compared to the control group: lower score during most of the experiment days
[1]; [9]
  The initial day (first illness signs): 13 days
  EAE score on the initial day (in brackets): 1.000
[1]; 0.1 mg/kg i.p.
  Score on day 29: 2.000
  Score on day 37: 1.500
[1]; [10]
  The initial day (first illness signs): 11 days
[1]; 1 mg/kg i.p.
  Number of dead mice during 49 days: 2
  EAE score on the initial day (in brackets): 0.214
[8]
  redness, inflammation and pruritus compared with control over the time course: significantly attenuated redness, inflammation and pruritus

## Myristoyl-Phe-Ala-Arg-Lys-Gly-Ala-Leu-OH (Myristoyl-FARKGAL-OH; SMILES CCCCCCCCCCCCCC(=O)N[C@@H](Cc1ccccc1)C(=O)N[C@@H](C)C(=O)N[C@@H](CCCNC(=N)N)C(=O)N[C@@H](CCCCN)C(=O)NCC(=O)N[C@@H](C)C(=O)N[C@@H](CC(C)C)C(=O)O) [MPDY-1 sh]
[4]
  cytokine secretion from LPS and TNFα activated keratinocytes: decrease cytokine secretion
  cytokine secretion from IL-17A activated keratinocytes: decrease cytokine secretion

## Myristoyl-Phe-Ala-Arg-Lys-Gly-Ala-Leu-OH-trifluoracetate salt (Myristoyl-FARKGAL-OH; also: trifluoracetate salt) [AIP-2]
[4]
  cytokine secretion in keratinocytes stimulated by LPS, TNFα, or IL-17: effective in decreasing cytokine secretion

## Myristoyl-Thru-Arg-Lys-Arg-Gln-Arg-Ala-Met-Arg-Arg-Arg-Val-His-Gln-Ile-Asn-Gly-OH (Myristoyl-TRKRQRAMRRRVHQING-OH; SMILES CCCCCCCCCCCCCC(=O)N[C@H](C(=O)N[C@@H](CCCNC(=N)N)C(=O)N[C@@H](CCCCN)C(=O)N[C@@H](CCCNC(=N)N)C(=O)N[C@@H](CCC(N)=O)C(=O)N[C@@H](CCCNC(=N)N)C(=O)N[C@@H](C)C(=O)N[C@@H](CCSC)C(=O)N[C@@H](CCCNC(=N)N)C(=O)N[C@@H](CCCNC(=N)N)C(=O)N[C@@H](CCCNC(=N)N)C(=O)N[C@H](C(=O)N[C@@H](Cc1c[nH]cn1)C(=O)N[C@@H](CCC(N)=O)C(=O)N[C@H](C(=O)N[C@@H](CC(N)=O)C(=O)NCC(=O)O)[C@@H](C)CC)C(C)C)[C@@H](C)O) [MPE-1]
[1]
  EAE severity: reduced EAE severity
[1]; [9]
  The initial day (first illness signs): 11 days
  EAE score on the initial day (in brackets): 0.429
[1]; [10]
  The initial day (first illness signs): 10 days
[1]; 1 mg/kg i.p.
  Number of dead mice during 49 days: 4
  EAE score on the initial day (in brackets): 0.429
[1]; control group 2.86
  average group score at the end of the experiment (day 42): 2.00

## Palmitoyl-Phe-Ala-Arg-Lys-Gly-Ala-Leu-Arg-Gln-OH-acetate salt (Palmitoyl-FARKGALRQ-OH; also: acetate salt) [PPDY-1]
[4]
  cytokine secretion in keratinocytes stimulated by LPS, TNFα, or IL-17: effective in decreasing cytokine secretion
